# Experimental data published in patent publication US4413007A, “Pesticidal symmetrical N-substituted bis-carbamoyloximino disulfide compounds” (priority 1978, dated 1983).
# Experiments:
# Type in all cases: in vivo
# [1] = system: Mexican bean beetle (Epilachna varivestis, Muls.); assay: Mexican Bean Beetle Leaf Spray Test; parameters: key: A: excellent control; B: partial control; C: no control; settings: 500 ppm, three days
# Description: (§1) Suspensions of the test compounds were prepared by dissolving one gram of compound in 50 milliliters of acetone in which had been dissolved 0.1 gram (10 percent of the weight of compound) of an alkylphenoxy polyethoxyethanol surfactant, as an emulsifying or dispersing agent. The resulting solution was mixed into 150 milliliters of water to give roughly 200 milliliters of a suspension containing the compound in finely divided form. The thus-prepared stock suspension contained 0.5 percent by weight of compound. The test concentrations in parts per million by weight employed in the tests described hereinbelow were obtained by appropriate dilutions of the stock suspension with water. The test procedures were as follows:
# Fourth instar larvae of the Mexican bean beetle (Epilachna varivestis, Muls.), reared on Tendergreen bean plants at a temperature of 80±5° F. and 50±5 percent relative humidity, were the test insects.
# The test compounds were formulated by diluting the stock suspension with water to give a suspension containing 500 parts of test compound per million parts of final formulation. Potted Tendergreen bean plants of standard height and age were placed on a revolving turntable and sprayed with 100-110 milliliters of test compound formulation by use of a DeVilbiss spray gun set at 10 psig air pressure. The application, which lasted 25 seconds, was sufficient to wet plants to run-off. As a control, 100-110 milliliters of a water-acetone-emulsifier solution containing no test compound were also sprayed on infested plants. When dry, the paired leaves were separated and each was placed in a 9 centimeter Petri dish lined with moistened filter paper. Five randomly selected larvae were introduced into each dish, and the dishes were closed. The closed dishes were labeled and held at a temperature of 80±5° F. for three days. Although the larvae could easily consume the leaf within 24 to 48 hours, no more food was added. Larvae which were unable to move the length of the body, even upon stimulation, were considered dead.
# (§2) In these tests the pesticidal activity of the compounds against aphid, mite, Southern Armyworm, Bean Beetle and house fly was rated as follows: […]
# [2] = system: two-spotted mite (Tetranychus urticae Koch); assay: Mite Foliage Spray Test; parameters: key: A: excellent control; B: partial control; C: no control; settings: 500 ppm, six days
# Description: as §1
# Adults and nymphal stages of the two-spotted mite (Tetranychus urticae Koch), reared on Tendergreen bean plants at 80±5 percent relative humidity, were the test organisms. Infested leaves from a stock culture were placed on the primary leaves of two bean plants six to eight inches in height, growing in a two-and-a-half inch clay pot. 150-200 Mites, a sufficient number for testing, transferred from the excised leaves to the fresh plants in a period of twenty four hours. Following the twenty four hour transfer period, the excised leaves were removed from the infested plants. The test compounds were formulated by diluting the stock suspension with water to give a suspension containing 500 parts of test compound per million parts of final formulation. The potted plants (one pot per compound) were placed on a revolving turntable and sprayed with 100-110 milliliters of test compound formulation by use of a DeVilbiss spray gun set at 40 psig. air pressure. This application, which lasted 25 seconds, was sufficient to wet the plants to run-off. As a control, 100-110 milliliters of a water solution containing acetone and emulsifier in the same concentrations as the test compound formulation, but containing no test compound, were also sprayed on infested plants. The sprayed plants were held at 80±5 percent relative humidity for six days, after which a mortality count of motile forms was made. Microscopic examination for motile forms was made on the leaves of the test plants. Any individual which was capable of locomotion upon prodding was considered living.
# as §2
# [3] = system: southern armyworm (Prodenia eridania, (Cram.)); assay: Southern Armyworm Leaf Spray Test; parameters: key: A: excellent control; B: partial control; C: no control; settings: 500 ppm, three days
# Description: as §1
# Larvae of the southern armyworm (Prodenia eridania, (Cram.)), reared on Tendergreen bean plants at a temperature of 80±5° F. and a relative humidity of 50±5 percent, constituted the test insects.
# The test compounds were formulated by diluting the stock suspension with water to give a suspension containing 500 parts of test compound per million parts of final formulation. Potted Tendergreen bean plants of standard height and age were placed on a revolving turntable and sprayed with 100-110 milliliters of test compound formulation by use of a DeVilbiss spray gun set at 10 psig air pressure. This application, which tested 25 seconds, was sufficient to wet plants to run-off. As a control, 100-110 milliliters of a water-acetone-emulsifier solution containing no test compound were also sprayed on infested plants. When dry, the paired leaves were separated and each one was placed in a 9 centimeter Petri dish lined with moistened filter paper. Five randomly selected larvae were introduced into each dish and the dishes were closed. The closed dishes were labeled and held at 80°-85° F. for three days. Although the larvae could easily consume the whole leaf within twenty-four hours, no more food was added. Larvae which were unable to move the length of the body, even upon stimulation by prodding, were considered dead. Percent mortality was recorded for various concentration levels.
# as §2
# [4] = system: house flies (Musca domestica, L.); assay: Fly Bait Test; parameters: key: A: excellent control; B: partial control; C: no control; settings: 500 ppm in sugar solution, twenty four hours
# Description: as §1
# Four to six day old adult house flies (Musca domestica, L.) reared according to the specifications of the Chemical Specialities Manufacturing Association (Blue Book, McNair-Dorland Co., N.Y. 1954; pages 243-244, 261) under controlled conditions of 80±5° F. and 50±5 percent relative humidity, were the test insects. The flies were immobilized by anesthetizing with carbon dioxide and twenty five immobilized individuals,males and females, were transferred to a cage consisting of a standard food strainer about five inches in diameter which was inverted over a wrapping-paper-covered surface. The test compounds were formulated by diluting the stock suspension with a 10 percent (by weight) sugar solution to give a suspension containing 500 parts of test compound per million parts of final formulation, by weight. Ten milliliters of the test formulation were added to a souffle cup containing a one-inch square of an absorbent cotton pad. This bait cup was introduced and centered on the blotting paper under the food strainer prior to admitting the anesthetized flies. The caged flies were allowed to feed on the bait for twenty four hours, at a temperature of 80±5° F. and the relative humidity of 50±5 percent.
# as §2
# [5] = system: root-knot nematode (Meloidogyne incognita var. acrita); assay: Nematode Test; parameters: key: 1: severe galling; equal to untreated control; 2: moderate galling; 3: light galling; 4: very light galling; 5: no galling; settings: 10 ml of 500 ppm formulation per jar (approx. 180 cc soil), cucumber indicator crop, approx. three weeks
# Description: as §1
# Infective migratory larvae of the root-knot nematode, (Meloidogyne incognita var. acrita) were reared in the greenhouse on roots of Rutgers variety tomato plant. Infected tomato plants were removed from the culture and the roots were chopped very finely. A small amount of inoculum from the roots was added to pint Mason jars containing approximately 180 cc of soil. The jars containing the inoculum and soil were capped and incubated for one week at room temperature. During this period eggs of the nematode hatched and the larvae forms migrated into the soil.
# The test compounds were formulated by diluting the stock suspension with water to give a suspension containing 500 parts of test compound per million parts of final formulation. 10 milliliters of the test formulation was added to each of two jars for each dosage treated. As a control 10 milliliters of a water-acetone-emulsifier solution containing no test compound was also added to jars containing nematode larvae. The jars were capped and the contents thoroughly mixed on a kale mill for five minutes. The jars remained capped at room temperature for a period of 48 hours and the contents were then transferred to 3 inch pots. Subsequently, the pots were seeded to cucumber as an indicator crop and placed in the green house where they were cared for in the normal fashion for growing potted cucumber for approximately three weeks. These cucumber plants were then removed from the pots, the soil washed from the roots and the amount of galling visually rated.
# The nematocidal toxicity has the following ratings;
# [6] = system: bean aphid (Aphis fabae Scop.); assay: Bean Aphid Foliage Spray Test; parameters: key: A: excellent control; B: partial control; C: no control; settings: 500 ppm, 24 hour holding period
# Description: as §1
# Adults and nymphal stages of the bean aphid (Aphis fabae Scop.) reared on potted dwarf nasturtium plants at 65°-70° F. and 50-70 percent relative humidity, constituted the test insects. For testing purposes, the number of aphids per pot was standardized to 100-150 by trimming plants containing excess aphids.
# The test compounds were formulated by diluting the stock suspension with water to give a suspension containing 500 parts of test compound per million parts of final formulation.
# The potted plants (one pot per compound tested) infested with 100-150 aphids, were placed on a revolving turntable and sprayed with 100-110 milliliters of test compound formulation by use of a DeVilbiss spray gun set at 40 psig. air pressure. This application, which tested 25 seconds, was sufficient to wet the plants to run-off. As a control, 100-110 milliliters of a water-acetone-emulsifier solution containing no test compound were also sprayed on infested plants. After spraying, the pots were placed on their sides on a sheet of white standard mimeograph paper which had been previously ruled to facilitate counting. Temperature and humidity in the test room during the 24 hour holding period were 65°-70° F. and 50-70 percent, respectively. Aphids which fell onto the paper and were unable to remain standing after being uprighted were considered dead. Aphids remaining on the plants were observed closely for movement and those which were unable to move the length of the body upon stimulation by prodding were considered dead. Percent mortality was recorded for various concentration levels.
# as §2
smiles,measurement,setting,value
"CC(=NOC(=O)N(C)SSN(C)C(=O)ON=C(C)[S+](C)[O-])[S+](C)[O-] (stereo not shown) [N,N'--Bis-[1-Methylsulfinylacetaldehyde O--(N--methylcarbamoyl)oxime] disulfide]",Mexican Bean Beetle control rating,[1],A
same,2-Spotted Mite control rating,[2],C
same,Southern Armyworm control rating,[3],B
same,House-Fly control rating,[4],A
same,Root-Knot Nematode galling rating,[5],1
same,Bean Aphid control rating,[6],C
"CN=C1SC(=NOC(=O)N(C)SSN(C)C(=O)ON=C2SC(=NC)SC2(C)C)C(C)(C)S1 [N,N'--Bis-[2-Methylimino-4,4-dimethyl-5-(O--(N--methyl-carbamoyl)oximino-1,3-dithiolane]disulfide]",Mexican Bean Beetle control rating,[1],A
same,2-Spotted Mite control rating,[2],B
same,Southern Armyworm control rating,[3],A
same,House-Fly control rating,[4],A
same,Root-Knot Nematode galling rating,[5],4
same,Bean Aphid control rating,[6],A
"CC(C)N1C(=O)C(C)(C)SC1=NOC(=O)N(C)SSN(C)C(=O)ON=C1SC(C)(C)C(=O)N1C(C)C [N,N'--Bis-[3-Isopropyl-5,5-dimethyl-2-(O--(N--methylcarbamoyl)oximino)-1,3-thiazolidin-4-one] disulfide]",Mexican Bean Beetle control rating,[1],A
same,2-Spotted Mite control rating,[2],C
same,Southern Armyworm control rating,[3],B
same,House-Fly control rating,[4],C
same,Bean Aphid control rating,[6],A
"CC(=NOC(=O)N(C)SSN(C)C(=O)ON=C(C)SC(C)C)SC(C)C [N,N'-Bis-[1-Isopropylthioacetaldehyde O-(N-methylcarbamoyl)oxime]disulfide]",Mexican Bean Beetle control rating,[1],A
same,2-Spotted Mite control rating,[2],A
same,Southern Armyworm control rating,[3],A
same,House-Fly control rating,[4],A
same,Root-Knot Nematode galling rating,[5],4
same,Bean Aphid control rating,[6],A
"CN(SSN(C)C(=O)ON=CC(C)(C)S(C)(=O)=O)C(=O)ON=CC(C)(C)S(C)(=O)=O [N,N'-Bis-[2-Methylsulfonyl-2-methylpropionaldehyde O-(N-methylcarbamoyl)oxime]disulfide]",Mexican Bean Beetle control rating,[1],C
same,2-Spotted Mite control rating,[2],B
same,Southern Armyworm control rating,[3],C
same,House-Fly control rating,[4],A
same,Root-Knot Nematode galling rating,[5],4
same,Bean Aphid control rating,[6],C
"CN(SSN(C)C(=O)ON=C1SCCS1)C(=O)ON=C1SCCS1 [N,N'-bis-[2-(O-(N-Methylcarbamoyl)oximino)-1,3-dithiolane]disulfide]",Mexican Bean Beetle control rating,[1],A
same,2-Spotted Mite control rating,[2],C
same,Southern Armyworm control rating,[3],A
same,House-Fly control rating,[4],A
same,Root-Knot Nematode galling rating,[5],5
same,Bean Aphid control rating,[6],A
"CN(SSN(C)C(=O)ON=CC(C)(C)C#N)C(=O)ON=CC(C)(C)C#N [N,N'-bis-[2-Cyano-2-methylpropionaldehyde O-(N-methylcarbamoyl)oxime]disulfide]",Mexican Bean Beetle control rating,[1],A
same,2-Spotted Mite control rating,[2],A
same,Southern Armyworm control rating,[3],A
same,House-Fly control rating,[4],A
same,Root-Knot Nematode galling rating,[5],4
same,Bean Aphid control rating,[6],A
"CSC(C)(C)C=NOC(=O)N(C)SSN(C)C(=O)ON=CC(C)(C)SC [N,N'-bis-[2-methylthio-2-methylpropionaldehyde O-(N-methylcarbamoyl)oxime]disulfide]",Mexican Bean Beetle control rating,[1],A
same,2-Spotted Mite control rating,[2],A
same,Southern Armyworm control rating,[3],A
same,House-Fly control rating,[4],A
same,Root-Knot Nematode galling rating,[5],5
same,Bean Aphid control rating,[6],A
"CN1CCSC(=NOC(=O)N(C)SSN(C)C(=O)ON=C2SCCN(C)C2=O)C1=O [N,N'-bis-[4-Methyl-2-(O-(N-methylcarbamoyl)oximino)tetrahydro-1,4-thiazin-3-one]disulfide]",Mexican Bean Beetle control rating,[1],A
same,2-Spotted Mite control rating,[2],A
same,Southern Armyworm control rating,[3],A
same,House-Fly control rating,[4],A
same,Bean Aphid control rating,[6],A
"CC1OCSC1=NOC(=O)N(C)SSN(C)C(=O)ON=C1SCOC1C (stereo not shown) [N,N'-bis-[5-Methyl-4-(O-(N-methylcarbamoyl)oximino)-1,3-oxathiolane]disulfide]",Mexican Bean Beetle control rating,[1],A
same,2-Spotted Mite control rating,[2],A
same,Southern Armyworm control rating,[3],A
same,House-Fly control rating,[4],A
same,Root-Knot Nematode galling rating,[5],1
same,Bean Aphid control rating,[6],A
